Values quoted from earlier work, collected in patent US20230210865A1, “MIDAZOLAM PREMIX FORMULATIONS AND USES THEREOF” (Baxter International, Inc., priority 2021, published 2023).
Structures can show the parent of a compound that is named as a salt.

## Cc1ncc2n1-c1ccc(Cl)cc1C(c1ccccc1F)=NC2 [Midazolam HCl, 8-chloro-6-(2-fluorophenyl)-1-methyl-4H-imidazo[1,5-a][1,4]benzodiazepine hydrochloride]
After intramuscular administration in adults
  Onset time of sedative effects: about fifteen
Sedative agent, administered by injection
  Potency relative to diazepam: about twice
